We go through 1 compound from ChEMBL document CHEMBL5226326, “Discovery of 1-Benzoyl 4-Phenoxypiperidines as Small-Molecule Inhibitors of the β-Catenin/B-Cell Lymphoma 9 Protein-Protein Interaction” (J Med Chem, 2021).

In test [1] the target is T1, beta-catenin-B-cell lymphoma 9 protein complex (Homo sapiens, UniProt P35222).
T1 sequence (P35222 whole entry): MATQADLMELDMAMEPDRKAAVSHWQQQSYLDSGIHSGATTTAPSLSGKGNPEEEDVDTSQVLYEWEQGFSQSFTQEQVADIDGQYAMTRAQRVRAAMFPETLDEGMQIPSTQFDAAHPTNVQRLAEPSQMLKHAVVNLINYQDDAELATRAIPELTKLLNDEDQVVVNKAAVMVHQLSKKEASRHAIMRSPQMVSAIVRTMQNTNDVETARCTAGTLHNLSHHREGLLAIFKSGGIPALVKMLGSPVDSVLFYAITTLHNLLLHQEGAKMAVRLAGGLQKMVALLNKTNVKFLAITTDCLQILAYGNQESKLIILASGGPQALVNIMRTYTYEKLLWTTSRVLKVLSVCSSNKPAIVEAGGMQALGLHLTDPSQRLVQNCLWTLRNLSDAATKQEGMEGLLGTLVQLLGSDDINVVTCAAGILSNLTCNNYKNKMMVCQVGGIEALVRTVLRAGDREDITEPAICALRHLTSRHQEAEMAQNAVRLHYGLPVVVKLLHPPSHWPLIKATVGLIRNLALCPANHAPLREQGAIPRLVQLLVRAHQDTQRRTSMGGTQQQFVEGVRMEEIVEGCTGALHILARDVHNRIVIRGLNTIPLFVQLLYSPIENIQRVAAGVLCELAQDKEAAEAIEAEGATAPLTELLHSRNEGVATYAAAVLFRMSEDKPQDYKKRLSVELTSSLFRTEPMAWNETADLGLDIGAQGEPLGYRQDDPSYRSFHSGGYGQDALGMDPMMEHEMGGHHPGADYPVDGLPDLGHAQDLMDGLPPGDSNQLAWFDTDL
T1 sequence (O00512 whole entry): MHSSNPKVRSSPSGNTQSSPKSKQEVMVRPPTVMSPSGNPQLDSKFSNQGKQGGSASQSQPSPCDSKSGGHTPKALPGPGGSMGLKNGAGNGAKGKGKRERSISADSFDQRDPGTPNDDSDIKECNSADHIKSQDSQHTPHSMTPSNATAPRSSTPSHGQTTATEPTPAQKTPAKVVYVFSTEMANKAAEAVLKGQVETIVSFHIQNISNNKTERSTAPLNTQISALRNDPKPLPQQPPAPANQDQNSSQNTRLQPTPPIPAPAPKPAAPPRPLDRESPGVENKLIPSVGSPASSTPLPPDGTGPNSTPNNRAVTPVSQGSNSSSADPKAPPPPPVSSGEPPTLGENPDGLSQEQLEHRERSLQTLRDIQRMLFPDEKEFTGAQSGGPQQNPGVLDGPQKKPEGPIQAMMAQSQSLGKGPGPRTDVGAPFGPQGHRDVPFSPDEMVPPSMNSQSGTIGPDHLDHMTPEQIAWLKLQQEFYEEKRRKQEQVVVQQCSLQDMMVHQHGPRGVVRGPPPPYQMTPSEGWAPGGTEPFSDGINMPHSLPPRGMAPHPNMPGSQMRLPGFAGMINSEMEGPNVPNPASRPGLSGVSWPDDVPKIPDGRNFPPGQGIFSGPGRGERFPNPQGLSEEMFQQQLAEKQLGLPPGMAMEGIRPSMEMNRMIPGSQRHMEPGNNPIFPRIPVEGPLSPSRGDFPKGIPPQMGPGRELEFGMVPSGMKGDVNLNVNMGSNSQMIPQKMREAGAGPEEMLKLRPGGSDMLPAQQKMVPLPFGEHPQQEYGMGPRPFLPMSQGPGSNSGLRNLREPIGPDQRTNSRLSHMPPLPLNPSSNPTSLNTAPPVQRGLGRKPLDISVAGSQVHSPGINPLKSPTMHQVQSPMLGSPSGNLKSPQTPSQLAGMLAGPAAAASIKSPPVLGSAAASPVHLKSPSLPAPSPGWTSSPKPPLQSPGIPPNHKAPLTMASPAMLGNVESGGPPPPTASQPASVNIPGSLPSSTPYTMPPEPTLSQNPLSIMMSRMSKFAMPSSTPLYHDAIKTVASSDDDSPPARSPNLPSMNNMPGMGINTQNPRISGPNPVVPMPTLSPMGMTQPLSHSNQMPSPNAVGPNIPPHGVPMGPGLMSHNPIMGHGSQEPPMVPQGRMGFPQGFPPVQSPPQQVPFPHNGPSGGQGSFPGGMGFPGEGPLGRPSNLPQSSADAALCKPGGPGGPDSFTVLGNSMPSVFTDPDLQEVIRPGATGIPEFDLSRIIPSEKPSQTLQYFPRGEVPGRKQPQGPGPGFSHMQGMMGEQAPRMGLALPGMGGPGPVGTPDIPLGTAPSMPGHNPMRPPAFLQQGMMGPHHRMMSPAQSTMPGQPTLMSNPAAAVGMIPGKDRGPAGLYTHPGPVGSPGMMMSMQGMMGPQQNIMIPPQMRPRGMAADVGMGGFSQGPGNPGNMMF
Briefly: Inhibition of full length beta-catenin (1 to 781 residues) (unknown origin) expressed in Escherichia coli BL21 (DE3)/N-terminal biotinylated human BCL9 HD2 (350 to 375 residues) protein-protein interaction assessed as inhibition constant incubated for 1 hr by Alphascreen assay. (In general: Bead proximity is the source of the signal in Alpha formats.)

The nature of test [2]: Inhibition of Wnt/beta-catenin D145A/E155A mutant transactivation signalling in human HEK293 cells transfected with TOPFlash reporter gene incubated for 24 hrs by TOPFlash luciferase assay. It counts as cell-based. The note with it: HEK293, 24 h. In general terms: Reporter assays use an easily measured gene product as a stand-in for the process of interest.
In the next test the test system is MDA-MB-231. The test is described as follows: Antiproliferative activity against beta-catenin signalling overexpressing human MDA-MB-231 cells assessed as reduction in cell growth incubated for 72 hrs by MTS assay. The note with it: MDA-MB-231, 72 h. It counts as functional, cell-based. (Formazan colour is commonly taken as a measure of viable cells.)

Consider `CC(C)(C)C1CCC(c2cc(C(=O)N3CCC(Oc4cc(N5CCNCC5)ccc4C#N)CC3)ccc2O[C@H]2CCNC2)CC1.Cl.Cl` (mixture of isomers; cis), for which the inhibition constant (Ki) in test [1] is 0.96 µM. In addition, the IC50 in test [2] amounted to 24 µM; in the test on MDA-MB-231 it was 4.1 µM.

What is called Ki is a dissociation constant, usually derived from enzyme kinetics or from competition with a known ligand. The term IC50 denotes the midpoint of a concentration-inhibition curve.
